Laboratory results taken from patent publication US10618901B2 (GlaxoSmithKline Intellectual Property Development Limited, priority 2014, dated 2020).

Each compound was assayed against T1, LRRK2 Ser935 phosphorylation in SH-SY5Y cells over-expressing recombinant full length LRRK2 (Homo sapiens, UniProt Q5S007) (assay: Recombinant cellular LRRK2 AlphaScreen assay). Settings: read-out: pIC50 in the recombinant cellular LRRK2 alphaScreen assay (converted).
T1 construct: A BacMam virus expressing full length recombinant LRRK2 was purchased from Invitrogen; host or cells: SH-SY5Y (BacMam transduction)
T1 sequence (Q5S007 whole entry): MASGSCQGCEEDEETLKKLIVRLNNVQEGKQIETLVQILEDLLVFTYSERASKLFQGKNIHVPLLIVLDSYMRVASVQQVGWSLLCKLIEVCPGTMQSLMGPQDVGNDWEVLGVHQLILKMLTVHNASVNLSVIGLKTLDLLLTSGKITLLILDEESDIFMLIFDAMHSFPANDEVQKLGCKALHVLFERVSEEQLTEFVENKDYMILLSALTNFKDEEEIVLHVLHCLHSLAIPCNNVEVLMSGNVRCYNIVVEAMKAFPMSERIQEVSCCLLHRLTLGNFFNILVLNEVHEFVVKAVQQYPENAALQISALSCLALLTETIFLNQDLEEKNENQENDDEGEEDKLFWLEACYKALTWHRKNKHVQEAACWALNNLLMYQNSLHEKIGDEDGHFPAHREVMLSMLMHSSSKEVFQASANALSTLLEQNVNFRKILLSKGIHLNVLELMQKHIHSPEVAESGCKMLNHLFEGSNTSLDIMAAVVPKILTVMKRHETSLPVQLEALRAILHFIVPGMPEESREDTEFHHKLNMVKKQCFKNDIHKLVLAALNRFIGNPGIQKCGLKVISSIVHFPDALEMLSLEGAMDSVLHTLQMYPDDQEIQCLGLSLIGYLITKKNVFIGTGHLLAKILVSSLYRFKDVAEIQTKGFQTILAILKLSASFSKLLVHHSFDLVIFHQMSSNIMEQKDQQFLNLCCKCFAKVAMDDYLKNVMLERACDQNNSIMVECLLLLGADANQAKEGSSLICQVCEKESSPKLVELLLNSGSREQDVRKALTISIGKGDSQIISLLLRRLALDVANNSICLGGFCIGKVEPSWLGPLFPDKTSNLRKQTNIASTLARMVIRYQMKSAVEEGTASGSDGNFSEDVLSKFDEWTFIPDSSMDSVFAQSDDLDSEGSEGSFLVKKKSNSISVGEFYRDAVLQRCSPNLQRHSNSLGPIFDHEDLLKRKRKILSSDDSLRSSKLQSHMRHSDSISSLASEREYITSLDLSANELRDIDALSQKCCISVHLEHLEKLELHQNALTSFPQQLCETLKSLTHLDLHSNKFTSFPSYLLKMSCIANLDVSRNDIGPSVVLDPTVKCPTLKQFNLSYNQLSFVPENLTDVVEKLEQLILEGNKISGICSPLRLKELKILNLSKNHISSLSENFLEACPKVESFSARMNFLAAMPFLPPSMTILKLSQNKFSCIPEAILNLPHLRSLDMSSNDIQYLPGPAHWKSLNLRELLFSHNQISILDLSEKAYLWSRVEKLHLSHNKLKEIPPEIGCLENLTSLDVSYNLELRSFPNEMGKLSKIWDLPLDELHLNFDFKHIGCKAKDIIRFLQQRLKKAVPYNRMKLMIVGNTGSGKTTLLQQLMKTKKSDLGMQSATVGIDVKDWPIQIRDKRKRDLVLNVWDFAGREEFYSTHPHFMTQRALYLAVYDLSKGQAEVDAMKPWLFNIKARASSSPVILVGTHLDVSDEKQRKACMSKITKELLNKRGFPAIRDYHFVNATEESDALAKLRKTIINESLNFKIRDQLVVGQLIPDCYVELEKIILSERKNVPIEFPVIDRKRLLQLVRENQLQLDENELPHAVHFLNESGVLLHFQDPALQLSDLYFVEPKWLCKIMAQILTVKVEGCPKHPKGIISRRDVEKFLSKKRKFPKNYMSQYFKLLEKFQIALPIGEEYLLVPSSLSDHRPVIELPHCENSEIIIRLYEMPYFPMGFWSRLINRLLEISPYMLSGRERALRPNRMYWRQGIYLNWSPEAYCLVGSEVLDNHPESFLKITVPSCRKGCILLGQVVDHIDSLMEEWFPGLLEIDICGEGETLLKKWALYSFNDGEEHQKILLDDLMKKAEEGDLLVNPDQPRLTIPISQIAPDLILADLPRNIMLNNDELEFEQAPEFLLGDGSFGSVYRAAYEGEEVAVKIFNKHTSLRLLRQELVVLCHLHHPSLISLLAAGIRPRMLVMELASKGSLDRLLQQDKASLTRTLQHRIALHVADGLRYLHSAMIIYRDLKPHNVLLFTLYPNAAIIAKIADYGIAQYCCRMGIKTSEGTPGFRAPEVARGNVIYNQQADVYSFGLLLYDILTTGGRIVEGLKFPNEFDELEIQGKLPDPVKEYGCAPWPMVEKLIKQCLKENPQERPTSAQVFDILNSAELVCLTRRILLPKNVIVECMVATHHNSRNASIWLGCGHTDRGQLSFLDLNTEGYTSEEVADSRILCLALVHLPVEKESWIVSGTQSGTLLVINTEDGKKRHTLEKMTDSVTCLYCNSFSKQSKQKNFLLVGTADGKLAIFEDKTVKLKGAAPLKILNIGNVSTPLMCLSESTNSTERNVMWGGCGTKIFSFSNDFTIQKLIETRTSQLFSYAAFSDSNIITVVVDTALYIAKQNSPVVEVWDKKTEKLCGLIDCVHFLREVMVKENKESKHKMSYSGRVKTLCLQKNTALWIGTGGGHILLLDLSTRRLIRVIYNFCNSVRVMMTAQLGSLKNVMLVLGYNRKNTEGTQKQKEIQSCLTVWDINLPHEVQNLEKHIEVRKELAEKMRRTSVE
Type: cell-based
Description: Recombinant Cellular LRRK2 AlphaScreen Assay
To determine the activity of compounds against LRRK2 kinase activity in cells, the observed LRRK2 kinase-dependent modulation of LRRK2 Ser 935 phosphorylation (Dzamko et al., 2010, Biochem. J. 430: 405-413) was utilized to develop a quantitative 384 well plate-based immunoassay of LRRK2 Ser935 phosphorylation in the human neuroblastoma cell line SH-SY5Y, engineered to over-express recombinant full length LRRK2 protein.
A BacMam virus expressing full length recombinant LRRK2 was purchased from Invitrogen and amplified by inoculation of SF-9 cells at MOI 0.3 for 4-5 days in Sf-900 III SFM medium supplemented with 3% fetal bovine serum. Infected cell cultures were then centrifuged at 2000 g for 20 minutes, viral supernatant titer determined by anti-gp64 plaque assay and stored at 4° C.
Affinity-purified anti-phospho LRRK2 Ser935 sheep polyclonal antibody (Dzamko et al., 2010, Biochem. J. 430: 405-413) was biotinylated by standard methods (PerkinElmer). Anti-LRRK2 rabbit polyclonal antibody was purchased from Novus Biologicals. AlphaScreen Protein A IgG Kit (including acceptor and donor beads) was purchased from Perkin Elmer.
SH-SY5Y cells were grown in DMEM/F12 medium with 10% dialysed fetal bovine serum and harvested by treatment with 0.5% trypsin-EDTA for 5 minutes at 37° C. followed by centrifugation at 1000 rpm for 4 minutes. The cell pellet was resuspended in Opti-MEM reduced serum media (Invitrogen) at 200,000 cells/ml and mixed with the BacMam LRRK2 virus at M01=50. 50 μl cell solutions were then dispensed to each well of a 384-well plate and incubated at 37° C., 5% CO2 for 24 hours.
Serial dilutions of test compounds were prepared in Opti-MEM reduced serum media (Invitrogen) and 5.6 ul transferred from compound plate to cell assay plate to achieve a top final assay concentration of 10 uM. DMSO was used in certain wells as controls. Cells were incubated at 37° C., 5% CO2 for 60 minutes. The medium was then removed and cells lysed by addition of 20 ul cell lysis buffer (Cell Signaling Technology) and incubation at 4° C. for 20 minutes. 10 ul of antibody/acceptor bead mix [(1/1000 biotinylated-pS935 LRRK2 antibody, 1/1000 total-LRRK2 antibody, 1/100 Acceptor beads in AlphaScreen detection buffer (25 mM Hepes (pH 7.4), 0.5% Triton X-100, 1 mg/ml Dextran 500 and 0.1% BSA)] was then added to each well and plates incubated for 2 hours at ambient temperature in the dark. 10 μl of donor beads solution (1/33.3 donor beads in AlphaScreen detection buffer) was then added to each well. Following incubation for a further 2 hours at ambient temperature in the dark, plates were read on an EnVision™ plate reader at emission 520-620 nm with excitation 680 nm. Dose response curve data was based on sigmoidal dose-response model.
With CCOc1nc(Nc2cnn(C3CCN(C4COC4)CC3(C)F)c2C)nc2[nH]ccc12 (single isomer, unassigned) [Example E138, (4-ethoxy-7H-pyrrolo[2,3-d]pyrimidin-2-yl)-[1-(3-fluoro-3-methyl-1-oxetan-3-yl-piperidin-4-yl)-5-methyl-1H-pyrazol-4-yl]-amine] the IC50 was ≤ 100 nM.
CCOc1nc(Nc2cnn(CC(C)(C)C#N)c2C)nc2[nH]ccc12 [Example E62, 3-(4-((4-ethoxy-7H-pyrrolo-[2,3-d]pyrimidin-2-yl)amino)-5-methyl-1H-pyrazol-1-yl)-2,2-dimethylpropanenitrile] was tested, and the IC50 was ≤ 100 nM.
In the case of CCOc1nc(Nc2cnn(C3CCC(N4CCOCC4)C3)c2C)nc2[nH]ccc12 (single isomer, unassigned) [Example E108, (trans)-4-ethoxy-N-(5-methyl-1-(3-morpholinocyclopentyl)-1H-pyrazol-4-yl)-7H-pyrrolo[2,3-d]pyrimidin-2-amine], the IC50 is reported as ≤ 100 nM.
With CCOc1nc(Nc2cnn([C@H]3CCN[C@@H](C(F)F)C3)c2C)nc2[nH]ccc12 [Example E95, N-(1-((2R,4S)-2-(difluoromethyl)piperidin-4-yl)-5-methyl-1H-pyrazol-4-yl)-4-ethoxy-7H-pyrrolo[2,3-d]pyrimidin-2-amine] the IC50 was ≤ 100 nM.
With CCOc1nc(Nc2cnn([C@H]3CCN(C4COC4)C[C@@H]3F)c2C)nc2[nH]ccc12 [Example E97, 4-ethoxy-N-(1-((3S,4S)-3-fluoro-1-(oxetan-3-yl)piperidin-4-yl)-5-methyl-1H-pyrazol-4-yl)-7H-pyrrolo[2,3-d]pyrimidin-2-amine] the IC50 was ≤ 100 nM.
In the case of CCOc1nc(Nc2cnn(C3CCN(C4COC4)CC3F)c2Cl)nc2[nH]ccc12 (single isomer, unassigned) [Example E106, cis-N-(5-chloro-1-(3-fluoro-1-(oxetan-3-yl)piperidin-4-yl)-1H-pyrazol-4-yl)-4-ethoxy-7H-pyrrolo[2,3-d]pyrimidin-2-amine], the IC50 is reported as ≤ 100 nM.
CCOc1nc(Nc2cnn(CCF)c2C)nc2[nH]ccc12 [Example E26, 4-ethoxy-N-(1-(2-fluoroethyl)-5-methyl-1H-pyrazol-4-yl)-7H-pyrrolo-[2,3-d]-pyrimidin-2-amine] was tested, and the IC50 was ≤ 100 nM.
For CCOc1nc(Nc2cnn([C@@H]3CCN(C)C3)c2C)nc2[nH]cc(C#N)c12 [Example E51, (R)-4-ethoxy-2-((5-methyl-1-(1-methyl-pyrrolidin-3-yl)-1H-pyrazol-4-yl)-amino)-7H-pyrrolo-[2,3-d]pyrimidine-5-carbonitrile], the IC50 was ≤ 100 nM.
For CCOc1nc(Nc2cnn([C@@H]3CCN[C@@H](C(F)F)C3)c2C)nc2[nH]ccc12 [Example E94, N-(1-((2R,4R)-2-(difluoromethyl)piperidin-4-yl)-5-methyl-1H-pyrazol-4-yl)-4-ethoxy-7H-pyrrolo[2,3-d]pyrimidin-2-amine], the IC50 was ≤ 100 nM.
With CCOc1nc(Nc2cnn(C3CCOCC3)c2Cl)nc2[nH]ccc12 [Example E22, N-(5-chloro-1-(tetrahydro-2H-pyran-4-yl)-1H-pyrazol-4-yl)-4-ethoxy-7H-pyrrolo-[2,3-d]-pyrimidin-2-amine] the IC50 was ≤ 100 nM.
For CCOc1nc(Nc2cnn(C3CCC(N4CCOCC4)CC3)c2Cl)nc2[nH]ccc12 (stereo not shown) [Example E149, N-(5-chloro-1-(4-morpholinocyclohexyl)-1H-pyrazol-4-yl)-4-ethoxy-7H-pyrrolo[2,3-d] pyrimidin-2-amine], the IC50 was ≤ 100 nM.
In the case of CCOc1nc(Nc2cnn(C3CC(N4CCOCC4)CCC3(F)F)c2Cl)nc2[nH]ccc12 (single isomer, unassigned) [Example E148, trans-N-(5-chloro-1-(2,2-difluoro-5-morpholinocyclohexyl)-1H-pyrazol-4-yl)-4-ethoxy-7H-pyrrolo[2,3-d]pyrimidin-2-amine], the IC50 is reported as ≤ 100 nM.
For CCOc1nc(Nc2cnn(CC3COC3)c2C)nc2[nH]ccc12 [Example E29, 4-ethoxy-N-(5-methyl-1-(oxetan-3-yl-methyl)-1H-pyrazol-4-yl)-7H-pyrrolo-[2,3-d]pyrimidin-2-amine], the IC50 was ≤ 100 nM.
CCOc1nc(Nc2cnn(C3CC(N4CCOCC4)CCC3(F)F)c2Cl)nc2[nH]ccc12 (racemic) [Example E145, (±)-trans-N-(5-chloro-1-(2,2-difluoro-5-morpholinocyclohexyl)-1H-pyrazol-4-yl)-4-ethoxy-7H-pyrrolo[2,3-d]pyrimidin-2-amine] was tested, and the IC50 was ≤ 100 nM.
With CCOc1nc(Nc2cnn(CC(C)(C)O)c2Cl)nc2[nH]ccc12 [Example E15, 1-(5-chloro-4-((4-ethoxy-7H-pyrrolo-[2,3-d]pyrimidin-2-yl)amino)-1H-pyrazol-1-yl)-2-methylpropan-2-ol] the IC50 was ≤ 100 nM.
CCOc1nc(Nc2cnn(C)c2Cl)nc2[nH]ccc12 [Example E4, N-(5-chloro-1-methyl-1H-pyrazol-4-yl)-4-ethoxy-7H-pyrrolo-[2,3-d]-pyrimidin-2-amine] was tested, and the IC50 was ≤ 100 nM.
With CCOc1nc(Nc2cnn(C3CCC(N4CCOCC4)C3)c2Cl)nc2[nH]ccc12 (single isomer, unassigned) [Example E110, (trans)-N-(5-chloro-1-(3-morpholinocyclopentyl)-1H-pyrazol-4-yl)-4-ethoxy-7H-pyrrolo [2,3-d]pyrimidin-2-amine] the IC50 was ≤ 100 nM.
For CCOc1nc(Nc2cnn(CC3COC3)c2Cl)nc2[nH]ccc12 [Example E28, N-(5-chloro-1-(oxetan-3-yl-methyl)-1H-pyrazol-4-yl)-4-ethoxy-7H-pyrrolo-[2,3-d]pyrimidin-2-amine], the IC50 was ≤ 100 nM.
For CCOc1nc(Nc2cnn(C3CCCC3O)c2Cl)nc2[nH]ccc12 (racemic) [Example E36, (±)-2-(5-chloro-4-((4-ethoxy-7H-pyrrolo-[2,3-d]-pyrimidin-2-yl)amino)-1H-pyrazol-1-yl)cyclopentanol], the IC50 was ≤ 100 nM.
